Tests used:
[1] = tested on: adjuvant-induced arthritis in the rat; assay: adjuvant-induced arthritis in the rat (secondary lesion, uninjected paw volume by water plethysmometer); assay type: in vivo, consanguineous Lewis rats
plasma peptidase = details: compared with natural tuftsin (I); cited from earlier work

Substance: gThr-mLys-Pro-Arg-OH [R-T]
- effectiveness relative to natural tuftsin ([1]; administered orally): at least 10 times
- reduction in secondary lesion development ([1]; intraperitoneally (i.p.), 0.1 mg/kg, three times per week until the 38th day): appreciable reduction in secondary lesion development, which is statistically significant only during the initial days of treatment
- anti-inflammatory activity (reduction in the volume of the uninjected paw) ([1]; oral (intragastric intubation), 0.1 mg/kg, three times per week from day 0 until the 38th day, paw volume from the 14th day): considerable anti-inflammatory activity
- reduction in secondary lesion ([1]; subcutaneously (s.c.), 0.1 mg/kg, three times per week until the 38th day): no statistically significant reduction in secondary lesion
- stability towards plasma peptidase (plasma peptidase): greater stability towards plasma peptidase
